Legend:
Rezeptorsubtyp M₁ = biological target: T1, Rezeptorsubtyp M₁ (Rattus norvegicus, UniProt P08482); assay: Muscarinic receptor binding study, M₁ subtype, hippocampus, [³H]pirenzepine; settings: Organ HIPPOCAMPUS, [³H]Ligand Pirenzepin, kind of constant not stated
T1 construct: HIPPOCAMPUS; from tissue; host or cells: hippocampus
T1 sequence (P08482 1-460): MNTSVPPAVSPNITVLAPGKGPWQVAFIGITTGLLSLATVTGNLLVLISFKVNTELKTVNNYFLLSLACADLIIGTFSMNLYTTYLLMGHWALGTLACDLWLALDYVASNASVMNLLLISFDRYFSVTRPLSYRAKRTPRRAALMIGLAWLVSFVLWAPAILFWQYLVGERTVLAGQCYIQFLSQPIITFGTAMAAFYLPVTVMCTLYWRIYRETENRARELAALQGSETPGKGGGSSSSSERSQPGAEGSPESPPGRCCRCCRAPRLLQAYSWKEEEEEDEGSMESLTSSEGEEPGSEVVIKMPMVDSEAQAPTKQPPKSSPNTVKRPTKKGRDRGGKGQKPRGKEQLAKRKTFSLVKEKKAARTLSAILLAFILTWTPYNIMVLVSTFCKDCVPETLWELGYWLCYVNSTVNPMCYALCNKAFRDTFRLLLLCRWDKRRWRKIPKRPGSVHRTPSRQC
Description: (§1) Die Rezeptorbindungsstudien im muskarinisch cholinergen System wurden an den drei Rezeptorsubtypen gemäß den untenstehenden Literaturzitaten ausgeführt (Watson, M., H. I. Yamamura and W.R. Roeske 1983, Life Sci. 32, 3001-3011; Hammer, R., C.P. Berrie, N.I.M. Birdsall, A.S.V. Burgen and E.C. Hulme 1980, Nature 283, 90-92; Hammer, R., E. Giraldo, G.B. Schiavi, E. Monferini and H. Ladinsky 1986, Life Sci. 38, 1653-1662;).

Rezeptorsubtyp M₂ = biological target: T2, Rezeptorsubtyp M₂ (Rattus norvegicus, UniProt P10980); assay: Muscarinic receptor binding study, M₂ subtype, heart, [³H]N-methylscopolamine; settings: Organ Herz, [³H]Ligand N-Methylscopolamin, kind of constant not stated
T2 construct: Herz; from tissue; host or cells: heart
T2 sequence (P10980 1-466): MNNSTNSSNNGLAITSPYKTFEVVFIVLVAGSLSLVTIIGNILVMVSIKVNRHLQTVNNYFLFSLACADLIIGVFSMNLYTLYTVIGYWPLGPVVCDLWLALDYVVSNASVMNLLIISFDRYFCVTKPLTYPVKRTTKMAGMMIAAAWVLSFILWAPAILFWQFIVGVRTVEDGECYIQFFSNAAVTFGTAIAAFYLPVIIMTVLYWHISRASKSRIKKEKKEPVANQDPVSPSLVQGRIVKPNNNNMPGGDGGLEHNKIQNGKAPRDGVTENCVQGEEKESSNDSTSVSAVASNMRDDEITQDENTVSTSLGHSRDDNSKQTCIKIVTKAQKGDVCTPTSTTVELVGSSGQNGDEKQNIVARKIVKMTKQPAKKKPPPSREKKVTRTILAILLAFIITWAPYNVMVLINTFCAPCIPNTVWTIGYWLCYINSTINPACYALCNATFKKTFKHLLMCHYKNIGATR
Description: as §1

Rezeptorsubtyp M₃ = biological target: T3, Rezeptorsubtyp M₃ (Rattus norvegicus, UniProt P08483); assay: Muscarinic receptor binding study, M₃ subtype, lacrimal gland, [³H]N-methylscopolamine; settings: Organ Tränendrüse, [³H]Ligand N-Methylscopolamin, kind of constant not stated
T3 construct: Tränendrüse; from tissue; host or cells: lacrimal gland
T3 sequence (P08483 whole entry): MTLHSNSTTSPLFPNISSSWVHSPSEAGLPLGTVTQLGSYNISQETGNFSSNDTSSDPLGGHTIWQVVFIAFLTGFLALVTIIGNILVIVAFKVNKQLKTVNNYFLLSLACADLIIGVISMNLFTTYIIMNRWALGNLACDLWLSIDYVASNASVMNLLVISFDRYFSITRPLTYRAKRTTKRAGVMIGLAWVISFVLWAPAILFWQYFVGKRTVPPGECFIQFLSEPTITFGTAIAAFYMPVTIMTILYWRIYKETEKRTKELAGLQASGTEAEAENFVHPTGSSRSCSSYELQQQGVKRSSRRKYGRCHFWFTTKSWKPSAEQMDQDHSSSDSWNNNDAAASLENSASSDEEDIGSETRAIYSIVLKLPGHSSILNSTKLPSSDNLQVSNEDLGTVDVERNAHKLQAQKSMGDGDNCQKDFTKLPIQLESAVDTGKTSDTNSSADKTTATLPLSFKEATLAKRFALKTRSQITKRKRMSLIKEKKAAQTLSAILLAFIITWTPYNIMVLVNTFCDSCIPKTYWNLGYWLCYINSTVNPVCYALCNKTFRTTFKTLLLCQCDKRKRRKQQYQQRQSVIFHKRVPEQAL
Description: as §1

[1] = EEG of the awake rabbit (arousal reaction); format: in vivo; settings: waches Kaninchen
Description: Die erfindungsgemäßen tertiären Amine der allgemeinen Formel I zeigen Affinitäten zu muscarinen Rezeptoren im ZNS und im Tierexperiment muscarine agonistische Eigenschaften im ZNS.

Agonisten Bindungsstelle = assay: [³H]cis-methyldioxolane binding study (muscarinic agonist binding site); settings: [³H]Ligand cis-Methyldioxolan
Description: Die erfindungsgemäßen Verbindungen verdrängen den muscarinen Agonisten mit hoher Affinität von der Agonisten Bindungsstelle. Die Durchführung der [3H]cis-Methyldioxolan-Bindungsstudien erfolgen analog zu A Closs et al., Naunyn Schmiedebergs Arch. Pharmacol 335, 372-377 (1987). Die Ergebnisse sind in Tabelle Ia zusammengestellt Tabelle Ia: […]

[2] = Haloperidol-induced dyskinesias in haloperidol-sensitised monkeys; format: in vivo; settings: gegen Haloperidol sensibilisierte Affen; Dosis < 1 mg/kg i.m

| Rezeptorbindung (Rezeptorsubtyp M₁) | Rezeptorbindung (Rezeptorsubtyp M₂) | Rezeptorbindung (Rezeptorsubtyp M₃) | SMILES | Arousal-Reaktion im EEG ([1]; 1 mg/kg i.v.) | Arousal-Reaktion im EEG ([1]; 3 mg/kg p.o.) | Ki (Agonisten Bindungsstelle) [nM] | Dyskinesien zusammen mit unterschwelligen Dosen (Haloperidol) [2] | durch Haloperidol hervorgerufene Dyskinesien [2] |
| --- | --- | --- | --- | --- | --- | --- | --- | --- |
| 1,4 µMol | 1,0 µMol |  | CCc1cc2c(o1)CN(C)CC2 [X=O, R₁=Et, R₂=H, R₃=H, R₄=CH₃, R₅=H, 2-Ethyl-6-methyl-4,5,6,7-tetrahydro-furo[2,3-c]pyridin] |  |  | 52 |  |  |
| 0,8 µMol | 2,5 µMol | 2,7 µMol | CC(C)Cc1cc2c(o1)CN(C)CC2 [X=O, R₁=iso-Bu, R₂=H, R₃=H, R₄=CH₃, R₅=H, 6-Methyl-2-iso-butyl-4,5,6,7,-tetrahydro-furo[2.3-c]pyridin] |  |  |  |  |  |
| 5,8 µMol | 8,4 µMol | 34,1 µMol | Cc1cc2c(s1)CN(C)CC2C (stereo not drawn) [X=S, R₁=CH₃, R₂=H, R₃=H, R₄=CH₃, R₅=CH₃, 2,4,6-Trimethyl-4,5,6,7-tetrahydrothieno[2,3-c]pyridin] |  |  |  |  |  |
| 7,5 µMol | 14 µmol | 53,1 µMol | Cc1cc2c(s1)CN(C)CC2 [X=S, R₁=CH₃, R₂=H, R₃=H, R₄=CH₃, R₅=H, 2,6-Dimethyl-4,5,6,7-tetrahydrothieno[2,3-c]pyridin] |  |  |  | lösen zusammen mit unterschwelligen Dosen Dyskinesien aus | verstärken |
| 2,2 µMol | 4,5 µMol | 11,4 µMol | CCN1CCc2cc(C)sc2C1 [X=S, R₁=CH₃, R₂=H, R₃=H, R₄=Et, R₅=H, 6-Ethyl-2-methyl-4,5,6,7-tetrahydrothieno[2,3-c]pyridin] |  |  |  |  |  |
| 39,6 µMol | >100 µmol | >100 µmol | Cc1cc2c(s1)CNCC2 [X=S, R₁=CH₃, R₂=H, R₃=H, R₄=H, R₅=H, 2-Methyl-4,5,6,7,-tetrahydro-thieno[2,3-c]pyridin] |  |  |  |  |  |

More lines, now with the values behind:

| SMILES | Rezeptorbindung (Rezeptorsubtyp M₁) | Rezeptorbindung (Rezeptorsubtyp M₂) | Rezeptorbindung (Rezeptorsubtyp M₃) | Arousal-Reaktion im EEG ([1]; 1 mg/kg i.v.) | Arousal-Reaktion im EEG ([1]; 3 mg/kg p.o.) | Ki (Agonisten Bindungsstelle) [nM] | Dyskinesien zusammen mit unterschwelligen Dosen (Haloperidol) [2] | durch Haloperidol hervorgerufene Dyskinesien [2] |
| --- | --- | --- | --- | --- | --- | --- | --- | --- |
| CCN1CCc2c(oc(C)c2C)C1 [X=O, R₁=CH₃, R₂=CH₃, R₃=H, R₄=Et, R₅=H] | 3,2 µMol | 3,2 µMol |  |  |  |  |  |  |
| Cc1cc2c(o1)CN(C)CC2 [X=O, R₁=CH₃, R₂=H, R₃=H, R₄=CH₃, R₅=H, 2,6-Dimethyl-4,5,6,7-tetrahydrofuro[2,3-c]pyridin] | 8,3 µMol | 6,5 µMol | 24,2 µMol | eine für Cholinomimetica typische Arousal-Reaktion | eine für Cholinomimetica typische Arousal-Reaktion | 81 |  |  |
| CCCc1cc2c(o1)CN(C)CC2 [X=O, R₁=N-Pr, R₂=H, R₃=H, R₄=CH₃, R₅=H, 6-Methyl-2-n-propyl-4,5,6,7,-tetrahydro-furo[2.3-c]pyridin] |  |  |  |  |  | 53 |  |  |
| CCCCc1cc2c(o1)CN(C)CC2 [X=O, R₁=n-Bu, R₂=H, R₃=H, R₄=CH₃, R₅=H, 6-Methyl-2-n-butyl-4,5,6,7,-tetrahydro-furo[2.3-c]pyridin] | 0,5 µMol | 0,7 µMol |  |  |  | 39 |  |  |
| CCCc1cc2c(o1)CNCC2 [X=O, R₁=n-Pr, R₂=H, R₃=H, R₄=H, R₅=H] |  |  |  |  |  | 160 |  |  |
| CN1CCc2ccsc2C1 [X=S, R₁=H, R₂=H, R₃=H, R₄=CH₃, R₅=H, 6-Methyl-4,5,6,7,-tetrahydro-thieno[2,3-c]pyridin] | 36,3 µMol | >100 µmol | >100 µmol |  |  |  |  |  |

Source: patent publication EP0314154A2, “Tetrahydrofuro- and thieno(2,3-c)pyridines, their use as a medicament and process for their preparation” (BOEHRINGER INGELHEIM KG, priority 1987, dated 1989)
